Laboratory results from patent US12258327B2, “5-membered heteroaryl-containing aminopyridine compounds as EGFR inhibitors” (YUHAN CORPORATION, priority 2021, dated 2025).
Read-outs that look alike come from different tables or passages of the source.

Legend:
[1] = target: EGFR wildtype (WT) (Homo sapiens, UniProt P00533); test: Biochemical EGFR kinase assay (Lance Ultra TR-FRET), wildtype
In short: (§1)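 Enzyme reactions lasted 1 hour at room temperature with test compounds between 0.003 and 10 μM, followed by 10 mM EDTA quench.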

[2] = target: EGFR L858R/T790M/C797S (Homo sapiens, UniProt P00533, C797S/L858R/T790M); test: Biochemical EGFR kinase assay (Lance Ultra TR-FRET), triple mutant L858R/T790M/C797S
In short: as §1

[3] = target: EGFR del19/C797S (Homo sapiens, UniProt P00533, C797S/DEL746-750); test: Biochemical EGFR kinase assay (Lance Ultra TR-FRET), double mutant del19/C797S
In short: as §1

[4] = target: EGFR L858R/C797S (Homo sapiens, UniProt P00533, C797S/L858R); test: Biochemical EGFR kinase assay (Lance Ultra TR-FRET), double mutant L858R/C797S
In short: as §1

[5] = target: EGFR del19/T790M/C797S (Homo sapiens, UniProt P00533, C797S/DEL746-750/T790M); test: Biochemical EGFR kinase assay (Lance Ultra TR-FRET), triple mutant del19/T790M/C797S
In short: as §1

[6] = IC50 WT (nM) 100 μM ATP, 100 μM ATP
[7] = IC50 L858R/T790M/C797S (nM) 100 μM ATP, 100 μM ATP
[8] = IC50 del19/C797S (nM) 100 μM ATP, 100 μM ATP
[9] = IC50 L858R/C797S (nM) 100 μM ATP, 100 μM ATP
[10] = IC50 del19/T790M/C797S (nM) 100 μM ATP, 100 μM ATP
[11] = Km ATP, read-out: IC50 WT (nM) Km ATP
[12] = Km ATP, read-out: IC50 L858R/T790M/C797S (nM) Km ATP
[13] = Km ATP, read-out: IC50 del19/C797S (nM) Km ATP
[14] = Km ATP, read-out: IC50 L858R/C797S (nM) Km ATP
[15] = Km ATP, read-out: IC50 del19/T790M/C797S (nM) Km ATP

EGFR del19/T790M/C797S, sequence (P00533 with tags, fused parts or gaps DEL746-750/T790M/C797S): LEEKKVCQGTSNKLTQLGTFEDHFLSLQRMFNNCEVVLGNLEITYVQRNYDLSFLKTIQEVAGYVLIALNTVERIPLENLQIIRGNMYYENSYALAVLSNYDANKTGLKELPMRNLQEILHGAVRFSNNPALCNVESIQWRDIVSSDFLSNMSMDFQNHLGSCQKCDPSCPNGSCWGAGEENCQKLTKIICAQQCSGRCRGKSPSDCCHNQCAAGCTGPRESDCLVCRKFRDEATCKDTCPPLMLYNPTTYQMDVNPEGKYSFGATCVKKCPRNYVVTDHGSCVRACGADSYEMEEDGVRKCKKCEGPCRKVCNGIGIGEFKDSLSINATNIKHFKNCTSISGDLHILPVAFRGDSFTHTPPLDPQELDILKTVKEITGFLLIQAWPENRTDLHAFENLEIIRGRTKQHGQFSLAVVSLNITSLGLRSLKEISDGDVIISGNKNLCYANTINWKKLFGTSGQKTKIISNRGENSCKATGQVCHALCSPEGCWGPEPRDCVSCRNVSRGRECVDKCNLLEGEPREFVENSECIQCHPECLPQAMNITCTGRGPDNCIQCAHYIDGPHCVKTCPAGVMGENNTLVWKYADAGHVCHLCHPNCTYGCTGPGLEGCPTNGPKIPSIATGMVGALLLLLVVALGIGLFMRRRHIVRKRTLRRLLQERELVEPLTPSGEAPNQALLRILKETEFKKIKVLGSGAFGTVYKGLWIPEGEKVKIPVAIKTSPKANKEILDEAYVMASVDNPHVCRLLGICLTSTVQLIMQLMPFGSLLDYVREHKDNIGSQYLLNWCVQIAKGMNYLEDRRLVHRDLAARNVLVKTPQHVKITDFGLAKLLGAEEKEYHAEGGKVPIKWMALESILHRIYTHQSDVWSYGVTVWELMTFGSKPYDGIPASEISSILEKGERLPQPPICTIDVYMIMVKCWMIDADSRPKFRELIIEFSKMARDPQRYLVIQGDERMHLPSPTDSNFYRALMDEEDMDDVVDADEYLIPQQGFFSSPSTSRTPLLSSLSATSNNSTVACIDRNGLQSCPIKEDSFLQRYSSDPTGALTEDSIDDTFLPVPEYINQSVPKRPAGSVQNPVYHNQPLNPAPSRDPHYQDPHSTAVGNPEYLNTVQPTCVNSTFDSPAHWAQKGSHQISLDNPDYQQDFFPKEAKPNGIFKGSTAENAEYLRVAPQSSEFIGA
EGFR L858R/C797S, sequence (P00533 25-1210 C797S/L858R): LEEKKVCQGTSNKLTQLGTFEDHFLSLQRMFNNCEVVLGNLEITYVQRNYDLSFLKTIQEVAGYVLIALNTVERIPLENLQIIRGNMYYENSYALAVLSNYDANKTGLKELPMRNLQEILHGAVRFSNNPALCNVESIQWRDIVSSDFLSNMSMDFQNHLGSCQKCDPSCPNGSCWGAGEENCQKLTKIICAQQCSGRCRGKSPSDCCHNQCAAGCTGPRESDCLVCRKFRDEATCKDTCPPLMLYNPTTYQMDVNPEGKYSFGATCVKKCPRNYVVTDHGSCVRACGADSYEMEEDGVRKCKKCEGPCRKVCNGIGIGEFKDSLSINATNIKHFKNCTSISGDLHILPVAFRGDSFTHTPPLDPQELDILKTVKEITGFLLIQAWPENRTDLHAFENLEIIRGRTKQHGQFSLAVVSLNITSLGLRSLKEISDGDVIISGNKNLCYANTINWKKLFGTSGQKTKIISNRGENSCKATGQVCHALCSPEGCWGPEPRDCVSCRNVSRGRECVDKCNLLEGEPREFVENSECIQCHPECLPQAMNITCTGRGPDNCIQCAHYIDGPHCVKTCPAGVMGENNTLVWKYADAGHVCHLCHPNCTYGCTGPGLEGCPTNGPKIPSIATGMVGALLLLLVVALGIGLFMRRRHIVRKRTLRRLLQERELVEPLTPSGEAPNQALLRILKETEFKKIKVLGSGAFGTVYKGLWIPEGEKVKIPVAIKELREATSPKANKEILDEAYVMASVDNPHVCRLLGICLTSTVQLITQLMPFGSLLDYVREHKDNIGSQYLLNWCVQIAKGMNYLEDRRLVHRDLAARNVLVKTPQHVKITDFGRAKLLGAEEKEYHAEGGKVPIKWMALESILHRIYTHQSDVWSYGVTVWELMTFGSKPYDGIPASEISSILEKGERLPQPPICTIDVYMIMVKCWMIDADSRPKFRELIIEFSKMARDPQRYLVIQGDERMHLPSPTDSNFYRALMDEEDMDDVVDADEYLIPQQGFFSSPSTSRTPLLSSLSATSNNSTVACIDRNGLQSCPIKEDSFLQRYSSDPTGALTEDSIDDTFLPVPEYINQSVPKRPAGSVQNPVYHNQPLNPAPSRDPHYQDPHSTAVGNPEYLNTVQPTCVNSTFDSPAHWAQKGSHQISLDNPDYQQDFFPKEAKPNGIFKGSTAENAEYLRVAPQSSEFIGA
EGFR L858R/T790M/C797S, sequence (P00533 25-1210 T790M/C797S/L858R): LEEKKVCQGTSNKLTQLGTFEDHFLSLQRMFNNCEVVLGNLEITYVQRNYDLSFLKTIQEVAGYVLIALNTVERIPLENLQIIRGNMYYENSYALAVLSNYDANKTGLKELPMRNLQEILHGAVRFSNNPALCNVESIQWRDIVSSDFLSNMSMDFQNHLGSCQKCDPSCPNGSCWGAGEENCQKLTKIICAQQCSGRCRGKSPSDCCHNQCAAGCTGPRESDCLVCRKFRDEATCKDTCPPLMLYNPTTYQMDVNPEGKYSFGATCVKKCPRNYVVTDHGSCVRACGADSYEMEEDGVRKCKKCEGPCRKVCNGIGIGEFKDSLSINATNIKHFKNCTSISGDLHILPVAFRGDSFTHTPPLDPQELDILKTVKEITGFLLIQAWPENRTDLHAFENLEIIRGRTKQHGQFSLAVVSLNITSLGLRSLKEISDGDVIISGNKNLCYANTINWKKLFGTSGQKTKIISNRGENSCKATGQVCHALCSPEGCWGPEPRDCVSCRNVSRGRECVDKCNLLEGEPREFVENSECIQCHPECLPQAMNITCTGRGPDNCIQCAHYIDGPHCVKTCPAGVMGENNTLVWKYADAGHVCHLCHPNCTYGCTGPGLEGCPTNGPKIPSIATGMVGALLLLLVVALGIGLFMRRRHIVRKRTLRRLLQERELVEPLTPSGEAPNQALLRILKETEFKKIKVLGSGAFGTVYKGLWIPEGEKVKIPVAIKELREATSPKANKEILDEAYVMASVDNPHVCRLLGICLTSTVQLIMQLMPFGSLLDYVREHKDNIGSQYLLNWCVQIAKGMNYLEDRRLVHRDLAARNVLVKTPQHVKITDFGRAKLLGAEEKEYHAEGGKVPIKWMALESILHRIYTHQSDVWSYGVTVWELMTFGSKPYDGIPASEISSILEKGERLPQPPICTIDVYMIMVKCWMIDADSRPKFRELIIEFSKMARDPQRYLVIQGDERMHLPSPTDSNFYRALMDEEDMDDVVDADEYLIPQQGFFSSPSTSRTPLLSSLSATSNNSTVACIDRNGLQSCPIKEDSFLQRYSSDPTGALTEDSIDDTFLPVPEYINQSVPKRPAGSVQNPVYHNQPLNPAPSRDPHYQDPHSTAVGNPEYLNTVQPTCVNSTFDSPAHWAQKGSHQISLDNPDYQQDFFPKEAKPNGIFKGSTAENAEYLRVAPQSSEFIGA
EGFR del19/C797S, sequence (P00533 with tags, fused parts or gaps DEL746-750/C797S): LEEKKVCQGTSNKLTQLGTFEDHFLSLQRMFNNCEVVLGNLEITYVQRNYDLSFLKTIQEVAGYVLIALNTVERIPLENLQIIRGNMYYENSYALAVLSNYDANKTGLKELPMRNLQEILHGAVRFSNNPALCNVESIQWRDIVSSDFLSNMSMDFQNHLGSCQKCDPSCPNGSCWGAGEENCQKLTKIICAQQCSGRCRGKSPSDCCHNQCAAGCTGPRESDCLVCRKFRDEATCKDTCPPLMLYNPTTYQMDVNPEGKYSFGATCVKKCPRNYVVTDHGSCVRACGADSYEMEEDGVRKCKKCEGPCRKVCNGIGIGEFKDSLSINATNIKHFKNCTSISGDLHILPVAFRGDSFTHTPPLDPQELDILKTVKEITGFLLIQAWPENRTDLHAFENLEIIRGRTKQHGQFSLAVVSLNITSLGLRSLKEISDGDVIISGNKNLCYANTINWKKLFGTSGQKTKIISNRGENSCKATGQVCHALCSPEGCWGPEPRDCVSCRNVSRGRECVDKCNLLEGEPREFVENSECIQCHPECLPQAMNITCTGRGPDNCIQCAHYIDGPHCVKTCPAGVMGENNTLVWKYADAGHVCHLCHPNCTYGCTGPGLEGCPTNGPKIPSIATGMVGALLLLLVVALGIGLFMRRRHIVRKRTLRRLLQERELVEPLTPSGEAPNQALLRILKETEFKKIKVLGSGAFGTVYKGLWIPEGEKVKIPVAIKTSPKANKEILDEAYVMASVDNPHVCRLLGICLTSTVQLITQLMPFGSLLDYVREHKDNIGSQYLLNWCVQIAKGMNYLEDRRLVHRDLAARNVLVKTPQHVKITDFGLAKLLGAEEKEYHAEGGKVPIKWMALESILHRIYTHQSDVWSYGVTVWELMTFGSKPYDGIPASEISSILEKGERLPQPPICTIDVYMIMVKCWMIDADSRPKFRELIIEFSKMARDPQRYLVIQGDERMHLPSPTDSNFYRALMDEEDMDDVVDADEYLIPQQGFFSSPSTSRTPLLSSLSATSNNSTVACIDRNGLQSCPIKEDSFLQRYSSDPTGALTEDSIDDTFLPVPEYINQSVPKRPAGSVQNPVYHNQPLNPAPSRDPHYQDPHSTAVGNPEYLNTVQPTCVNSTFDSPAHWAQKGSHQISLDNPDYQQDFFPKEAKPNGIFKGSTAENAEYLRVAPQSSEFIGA

Row | IC50 [1, 6] [nM] | IC50 [2, 7] [nM] | IC50 [3, 8] [nM] | IC50 [4, 9] [nM] | IC50 [5, 10] [nM] | IC50 [1, 11] [nM] | IC50 [2, 12] [nM] | IC50 [3, 13] [nM] | IC50 [4, 14] [nM] | IC50 [5, 15] [nM] | IC50 ([1]; Km ATP, read-out: IC50 WT, Km ATP) [nM] | IC50 ([2]; Km ATP, read-out: IC50 L858R/T790M/C797S, Km ATP) [nM] | IC50 ([3]; Km ATP, read-out: IC50 del19/C797S, Km ATP) [nM] | IC50 ([4]; Km ATP, read-out: IC50 L858R/C797S, Km ATP) [nM] | IC50 ([5]; Km ATP, read-out: IC50 del19/T790M/C797S, Km ATP) [nM] | SMILES
1 | > 10000 | 6.7 | 44.4 | 962 | 2.1 |  |  |  |  |  |  |  |  |  |  | Cn1ccc(-c2cnc(Nc3ccnc(-c4cnn(S(=O)(=O)C5CC5)c4)n3)cc2N[C@H]2CC[C@H](CO)OC2)n1 [Example 227, ((2R,5S)-5-((2-((2-(1-(Cyclopropylsulfonyl)-1H-pyrazol-4-yl)pyrimidin-4-yl)amino)-5-(1-methyl-1H-pyrazol-3-yl)pyridin-4-yl)amino)tetrahydro-2H-pyran-2-yl)methanol]
2 | > 10000 | 3.3 | 2.2 | 3040 | 0.3 | 84.7 | 0.1 | 0.7 | 4.2 |  |  |  |  |  |  | O=S(=O)(C1CC1)n1cc(-c2nccc(Nc3cc(N[C@H]4CC[C@H](CO)CC4)c(-c4ccn(C(F)F)n4)cn3)n2)cn1 [Example 198, ((1r,4r)-4-((2-((2-(1-(Cyclopropylsulfonyl)-1H-pyrazol-4-yl)pyrimidin-4-yl)amino)-5-(1-(difluoromethyl)-1H-pyrazol-3-yl)pyridin-4-yl)amino)cyclohexyl)methanol]
3 | > 10000 | 3.9 | 35.1 | 63.3 | 2.2 | 65.3 | 1.1 | 15.7 | 1.6 | 2.6 |  |  |  |  |  | CN(C)S(=O)(=O)n1cc(-c2nccc(Nc3cc(N[C@H]4CC[C@@](C)(O)CC4)c(-c4cc(C(F)(F)F)n(C)n4)cn3)n2)cn1 [Example 330, 4-(4-((4-(((1s,4s)-4-Hydroxy-4-methylcyclohexyl)amino)-5-(1-methyl-5-(trifluoromethyl)-1H-pyrazol-3-yl)pyridin-2-yl)amino)pyrimidin-2-yl)-N,N-dimethyl-1H-pyrazole-1-sulfonamide]
4 |  |  |  |  |  | 355 | 1.8 | 340 | 0.8 | 1.1 |  |  |  |  |  | CC(C)Nc1cc(Nc2ccnc(-c3cnn(S(=O)(=O)C4CC4)c3)n2)ncc1-c1ccn(CCC(F)(F)F)n1 [Example 304, N^2-(2-(1-(Cyclopropylsulfonyl)-1H-pyrazol-4-yl)pyrimidin-4-yl)-N^4-isopropyl-5-(1-(3,3,3-trifluoropropyl)-1H-pyrazol-3-yl)pyridine-2,4-diamine]
5 | 3600 | 0.6 | 4.9 | 178 | 0.6 | 7.5 | 0.4 | 2 | 7.1 | 0.8 |  |  |  |  |  | CN(C)CC1(C)CCC(Nc2cc(Nc3ccnc(-c4cnn(S(=O)(=O)C5CC5)c4)n3)ncc2-c2ccn(C)n2)CC1 (stereo not drawn) [Example 238, N^2-(2-(1-(Cyclopropylsulfonyl)-1H-pyrazol-4-yl)pyrimidin-4-yl)-N^4-(4-((dimethylamino)methyl)-4-methylcyclohexyl)-5-(1-methyl-1H-pyrazol-3-yl)pyridine-2,4-diamine]
6 | 4690 | 0.4 | 1 | 14.2 | 0.3 | 4.9 | 0.3 | 0.6 | 0.6 | 0.5 |  |  |  |  |  | CN(C)CCCn1ccc(-c2cnc(Nc3ccnc(-c4cnn(S(=O)(=O)C5CC5)c4)n3)cc2NCC2(CO)COC2)n1 [Example 279, (3-(((2-((2-(1-(Cyclopropylsulfonyl)-1H-pyrazol-4-yl)pyrimidin-4-yl)amino)-5-(1-(3-(dimethylamino)propyl)-1H-pyrazol-3-yl)pyridin-4-yl)amino)methyl)oxetan-3-yl)methanol]
7 | > 10000 | 0.9 | 65.7 | 269 | 1.2 | 1780 | 0.2 | 24.3 | 35.9 | 0.5 |  |  |  |  |  | C[C@]1(O)CC[C@@H](Nc2cc(Nc3ccnc(-c4cnn(CC(F)(F)F)c4)n3)ncc2-c2ccn(C(F)F)n2)CC1 [Example 137, (1s,4s)-4-((5-(1-(Difluoromethyl)-1H-pyrazol-3-yl)-2-((2-(1-(2,2,2-trifluoroethyl)-1H-pyrazol-4-yl)pyrimidin-4-yl)amino)pyridin-4-yl)amino)-1-methylcyclohexan-1-ol]
8 | > 10000 | 0.6 | 0.5 | 15.1 | 0.4 | 6.1 | 0.1 | 0.5 | 0.4 | 0.4 |  |  |  |  |  | O=S(=O)(C1CC1)n1cc(-c2nccc(Nc3cc(NC[C@H]4CC[C@@H](O)C4)c(-c4ccn(C(F)F)n4)cn3)n2)cn1 [Example 119, (1R,3S)-3-(((2-((2-(1-(Cyclopropylsulfonyl)-1H-pyrazol-4-yl)pyrimidin-4-yl)amino)-5-(1-(difluoromethyl)-1H-pyrazol-3-yl)pyridin-4-yl)amino)methyl)cyclopentan-1-ol]
9 |  |  |  |  |  | 1010 | 4.8 | 90.9 | 188 | 20.2 |  |  |  |  |  | O=S(=O)(C1CC1)n1cc(-c2nccc(Nc3cc(N[C@H]4CC[C@@H](F)CC4)c(-c4ccn(C(F)(F)F)n4)cn3)n2)cn1 [Example 286, N^2-(2-(1-(Cyclopropylsulfonyl)-1H-pyrazol-4-yl)pyrimidin-4-yl)-N^4-((1s,4s)-4-fluorocyclohexyl)-5-(1-(trifluoromethyl)-1H-pyrazol-3-yl)pyridine-2,4-diamine]
10 |  |  |  |  |  | 984 | 5.9 | 949 | 15.6 | 4.3 |  |  |  |  |  | COCC#Cc1nccc(Nc2cc(NC3CCC(C)(O)CC3)c(-c3ccn(C(F)F)n3)cn2)n1 (stereo not drawn) [Example 104, (1s,4s)-4-((5-(1-(Difluoromethyl)-1H-pyrazol-3-yl)-2-((2-(3-methoxyprop-1-yn-1-yl)pyrimidin-4-yl)amino)pyridin-4-yl)amino)-1-methylcyclohexan-1-ol]
11 | 7100 | 0.5 | 4.3 | 7.6 | 0.5 |  |  |  |  |  |  |  |  |  |  | O=S(=O)(C1CC1)n1cc(-c2nccc(Nc3cc(N[C@H]4CC[C@@H](NCCF)CC4)c(-c4ccn(C(F)F)n4)cn3)n2)cn1 [Example 9, N^2-(2-(1-(Cyclopropylsulfonyl)-1H-pyrazol-4-yl)pyrimidin-4-yl)-5-(1-(difluoromethyl)-1H-pyrazol-3-yl)-N^4-((1s,4s)-4-((2-fluoroethyl)amino)cyclohexyl)pyridine-2,4-diamine]
12 | > 10000 | 1.8 | 25.8 | 355 | 1 | 53 | 0.7 | 16.9 | 19.6 | 0.7 |  |  |  |  |  | Cn1ccc(-c2cnc(Nc3ccnc(-c4cnn(S(=O)(=O)C5CC5)c4)n3)cc2NCC2(C)CCC(O)CC2)n1 (stereo not drawn) [Example 127, 4-(((2-((2-(1-(Cyclopropylsulfonyl)-1H-pyrazol-4-yl)pyrimidin-4-yl)amino)-5-(1-methyl-1H-pyrazol-3-yl)pyridin-4-yl)amino)methyl)-4-methylcyclohexan-1-ol]
13 | > 10000 | 3.2 | 18 | 160 | 0.7 |  |  |  |  |  |  |  |  |  |  | O=S(=O)(C1CC1)n1cc(-c2nccc(Nc3cc(NC4CCC(NCCO)CC4)c(-c4csc(C(F)(F)F)n4)cn3)n2)cn1 (stereo not drawn) [Example 97, 2-((4-((2-((2-(1-(Cyclopropylsulfonyl)-1H-pyrazol-4-yl)pyrimidin-4-yl)amino)-5-(2-(trifluoromethyl)thiazol-4-yl)pyridin-4-yl)amino)cyclohexyl)amino)ethan-1-ol]
14 | > 10000 | 0.3 | 0.8 | 14.3 | 0.5 | 6.9 | 0.2 | 0.7 | 2 | 0.3 |  |  |  |  |  | CNC(=O)[C@H]1CC[C@@H](Nc2cc(Nc3ccnc(-c4cnn(S(=O)(=O)C5CC5)c4)n3)ncc2-c2ccn(C(F)F)n2)CC1 [Example 24, (1s,4s)-4-((2-((2-(1-(Cyclopropylsulfonyl)-1H-pyrazol-4-yl)pyrimidin-4-yl)amino)-5-(1-(difluoromethyl)-1H-pyrazol-3-yl)pyridin-4-yl)amino)-N-methylcyclohexane-1-carboxamide]
15 |  |  |  |  |  |  |  |  |  |  | 46.2 | 0.4 | 5.2 | 8.4 | 0.2 | C[C@]1(O)CC[C@@H](Nc2nc(Nc3ccnc(-c4cnn(S(=O)(=O)C5CC5)c4)c3)ncc2-c2ccn(CC(F)F)n2)CC1 [Example 357, (1s,4s)-4-((2-((2-(1-(Cyclopropylsulfonyl)-1H-pyrazol-4-yl)pyridin-4-yl)amino)-5-(1-(2,2-difluoroethyl)-1H-pyrazol-3-yl)pyrimidin-4-yl)amino)-1-methylcyclohexan-1-ol]
